Patent US7364866B2, “Drosophila G protein coupled receptors, nucleic acids, and methods related to the same” (Pharmacia & Upjohn Company, priority 1999, dated 2008)
Non-standard residues stand in square brackets, D forms with d. No end group written: not given here. pGlu = O=C1CC[C@@H](C(=O)O)N1

Columns and labels:
DmGPCR5 = DmGPCR5 (Drosophila melanogaster, UniProt P30975, L70Q); assay: biochemical; parameters: expressed in transfected cells; host or cells: CHO-1000A (so in the source), transient; conditions: DmGPCR5; given in words
DmGPCR5, sequence (P30975 whole entry L70Q): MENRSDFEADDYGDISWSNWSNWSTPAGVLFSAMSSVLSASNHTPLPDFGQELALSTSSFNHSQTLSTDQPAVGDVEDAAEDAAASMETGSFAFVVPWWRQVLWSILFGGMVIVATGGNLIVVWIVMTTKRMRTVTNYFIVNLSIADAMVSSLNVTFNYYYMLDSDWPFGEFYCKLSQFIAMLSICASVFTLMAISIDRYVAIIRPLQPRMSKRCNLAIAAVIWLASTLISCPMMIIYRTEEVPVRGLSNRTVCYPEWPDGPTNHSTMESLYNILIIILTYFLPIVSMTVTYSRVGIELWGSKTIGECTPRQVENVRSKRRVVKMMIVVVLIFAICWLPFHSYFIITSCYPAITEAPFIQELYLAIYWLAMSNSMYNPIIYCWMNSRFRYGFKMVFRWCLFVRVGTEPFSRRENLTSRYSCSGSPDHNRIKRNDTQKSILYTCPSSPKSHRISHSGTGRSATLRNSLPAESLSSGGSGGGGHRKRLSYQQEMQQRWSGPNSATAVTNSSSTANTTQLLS
Description: (§1) The transfected cells were washed once with ice-cold Dulbecco's phosphate buffered saline (PBS), 5 ml per 10 cm plate, and scraped into 5 ml of the same buffer. Cell suspensions from multiple plates were combined and centrifuged at 500×g for 10 min at 4° C. The cell pellet was reconstituted in ice-cold TEE (25 mM TRIS, 5 mM EGTA, 5 mM EDTA). Convenient aliquots were snap-frozen in liquid nitrogen and stored at −70° C. After thawing, the cells were homogenized and centrifuged at 4° C., 500×g for 5 minutes to pellet nuclei and unbroken cells. The supernatant was centrifuged at 47,000×g for 30 minutes at 4° C. The membrane pellet was washed once with TEE, resuspended in 20 mM HEPES, pH 7.4, 100 mM NaCl, 10 mM MgCl2, 1 mM EDTA (assay buffer), aliquoted and frozen in liquid nitrogen. Membrane aliquots were stored at −70° C. Membrane protein concentration was determined using the BCA Protein Assay Reagent from Pierce (Rockford, Ill.) and BSA as standard.
Initially, reaction mixtures were prepared in 96-well polypropylene plates (Nunc). In each well, peptide aqueous solution (20 μl, 10×), or water controls (20 μl), 18.2 μM GDP in assay buffer (0.11 ml, 10 μM final), and membranes suspended in assay buffer (50 μl, 10 μg membrane protein) were mixed and placed on ice. […] Then the membranes were washed 3 times with 0.25 ml ice-cold wash buffer/well (10 mM HEPES, 10 mM MgCl2, pH 7.4) and vacuum filtered. […] Each treatment was carried out in triplicates.
(§2) Ligand-induced stimulation of [^35S]GTPγS binding was expressed as fold increase over the basal activity with no ligand added. Each treatment was run either in triplicate, or, on occasion, in duplicate, and the binding (cpm) was calculated as means +/− standard deviations. Dose-response curves for the receptor/ligand systems were analyzed using a non-linear least square SAS model, y=Bmax X/(Kd+X). Other dose-response curves were analyzed using Prism (GraphPad Software, Inc. San Diego, Calif.) and the following equation y=Bottom+(Top−Bottom)/(1+10^LogEC50-X).
(§3) Originally, we have chosen the GTPγS assay as a functional assay because agonist-driven stimulation of GTPγS reflects early events in the DmGPCR activation cascade, regardless of further activation pathways of various down-stream signaling events. This appears especially useful for the assessment of possible activation of orphan DmGPCRs with unknown functions and unknown signaling pathways. The GTPγS assay was carried out with membranes prepared from CHO cells transiently transfected with DNA encoding Drosophila GPCRs using a 96-well MultiScreen G/FB filter plates and a MultiScreen vacuum manifold (Millipore) for filtration. Since the GTPγS assay is known to poorly recognize GPCRs coupled to the Gq class of G-proteins, a Ca^+2 mobilization assay based on a FLIPR readout was used as well to evaluate Gq-coupled orphan GPCRs in CHO cells transiently transfected with DNA encoding Drosophila GPCRs.

DmGPCR9 = assay: calcium mobilization assay (FLIPR); type: cell-based, Drosophila melanogaster; conditions: tested at 10 μM
DmGPCR9, sequence (as listed by the source): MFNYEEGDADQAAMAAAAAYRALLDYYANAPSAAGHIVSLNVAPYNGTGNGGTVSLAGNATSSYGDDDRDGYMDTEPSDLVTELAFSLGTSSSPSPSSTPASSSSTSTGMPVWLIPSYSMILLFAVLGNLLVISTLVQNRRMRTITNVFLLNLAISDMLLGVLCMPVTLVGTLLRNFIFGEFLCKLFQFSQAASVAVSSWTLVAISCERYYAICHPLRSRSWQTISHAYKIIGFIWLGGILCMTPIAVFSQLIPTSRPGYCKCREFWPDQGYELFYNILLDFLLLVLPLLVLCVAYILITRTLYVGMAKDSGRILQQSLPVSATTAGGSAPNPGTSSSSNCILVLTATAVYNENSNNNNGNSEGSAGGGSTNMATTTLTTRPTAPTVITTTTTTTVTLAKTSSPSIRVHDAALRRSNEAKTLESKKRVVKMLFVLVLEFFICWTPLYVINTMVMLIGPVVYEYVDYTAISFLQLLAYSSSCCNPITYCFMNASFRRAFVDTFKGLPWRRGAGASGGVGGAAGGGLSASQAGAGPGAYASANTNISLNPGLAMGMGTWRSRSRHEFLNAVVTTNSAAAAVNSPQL
Description: (§4) Changes in intracellular calcium levels are another recognized indicator of G protein-coupled receptor activity, and such assays can be employed to screen for modulators of DmGPCR activity. For example, CHO cells stably transfected with a DmGPCR expression vector are plated at a density of 4×10^4 cells/well in Packard black-walled, 96-well plates specially designed to discriminate fluorescence signals emanating from the various wells on the plate. The cells are incubated for 60 minutes at 37° C. in modified Dulbecco's PBS (D-PBS) containing 36 mg/L pyruvate and 1 g/L glucose and one of four calcium indicator dyes (Fluo-3™ AM, Fluo-4™ AM, Calcium Green™-1 AM, or Oregon Green™ 488 BAPTA-1 AM), each at a concentration of 4 μM. […]
(§5) A calcium response is initiated by the addition of one or more candidate receptor agonist compounds, calcium ionophore A23187 (10 μM; positive control), or ATP (4 μM; positive control). Fluorescence is measured by Molecular Device's FLIPR with an argon laser (excitation at 488 nm). […] Basal fluorescence of cells was measured for 20 seconds prior to addition of candidate agonist, ATP, or A23187, and the basal fluorescence level was subtracted from the response signal. The calcium signal is measured for approximately 200 seconds, taking readings every two seconds. […]

Dmgpcr6aL = target: T1, Dmgpcr6aL (Drosophila melanogaster, UniProt P25931, I47L); assay: calcium mobilization assay (FLIPR); type: cell-based; conditions: FaRPs tested at 10 μM, active sequences listed in Table 7 (6aL and 6bL)
T1 construct: A new 5′ PCR primer was designed that incorporated the PnuFlyPep15731 start codon; expressed in transfected cells; host or cells: CHO-K1 or CHO-10001A, transient
T1 sequence (P25931 whole entry I47L): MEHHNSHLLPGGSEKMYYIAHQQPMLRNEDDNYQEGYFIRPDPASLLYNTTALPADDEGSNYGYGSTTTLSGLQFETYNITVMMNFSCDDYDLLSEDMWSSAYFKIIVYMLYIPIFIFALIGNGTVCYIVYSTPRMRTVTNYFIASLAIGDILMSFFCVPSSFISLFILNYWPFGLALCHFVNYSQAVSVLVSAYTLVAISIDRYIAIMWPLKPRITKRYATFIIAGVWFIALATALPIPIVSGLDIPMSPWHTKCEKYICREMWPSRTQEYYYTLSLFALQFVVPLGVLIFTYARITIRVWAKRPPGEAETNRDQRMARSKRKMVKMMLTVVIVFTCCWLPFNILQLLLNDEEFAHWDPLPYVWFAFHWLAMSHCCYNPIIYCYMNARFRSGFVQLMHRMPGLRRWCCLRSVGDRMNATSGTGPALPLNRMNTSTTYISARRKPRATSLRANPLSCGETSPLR
Description: as §4, §5

Dmgpcr6bL = target: T2, Dmgpcr6bL (Drosophila melanogaster, UniProt P25931, I47L); assay: calcium mobilization assay (FLIPR); type: cell-based; conditions: FaRPs tested at 10 μM, active sequences listed in Table 7 (6aL and 6bL)
T2 construct: A new 5′ PCR primer was designed that incorporated the PnuFlyPep15731 start codon; expressed in transfected cells; host or cells: CHO-K1 or CHO-10001A, transient
T2 sequence (P25931 other isoform, or with tags, fused parts or gaps I47L): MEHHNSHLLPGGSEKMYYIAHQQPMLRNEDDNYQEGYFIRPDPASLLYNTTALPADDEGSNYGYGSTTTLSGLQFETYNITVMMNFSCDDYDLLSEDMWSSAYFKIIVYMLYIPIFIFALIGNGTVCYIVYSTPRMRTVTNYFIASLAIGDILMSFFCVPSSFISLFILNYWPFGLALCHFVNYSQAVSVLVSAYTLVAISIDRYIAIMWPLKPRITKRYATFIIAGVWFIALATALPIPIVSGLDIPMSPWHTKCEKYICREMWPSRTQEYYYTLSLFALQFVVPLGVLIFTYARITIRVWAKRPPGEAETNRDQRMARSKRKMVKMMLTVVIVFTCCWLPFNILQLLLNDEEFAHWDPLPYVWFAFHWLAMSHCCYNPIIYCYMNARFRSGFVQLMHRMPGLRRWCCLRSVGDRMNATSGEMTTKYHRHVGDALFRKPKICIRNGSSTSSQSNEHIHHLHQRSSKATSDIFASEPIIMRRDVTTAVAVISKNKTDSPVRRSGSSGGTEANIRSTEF
Description: as §4, §5

DmGPCR6a = target: T3, DmGPCR6a (Drosophila melanogaster, UniProt P25931, I47L); assay: [35S]GTPγS binding assay, membranes of transfected CHO cells; type: biochemical; conditions: peptide tested at 5 μM
T3 construct: expressed in transfected cells; host or cells: CHO cells, transient
T3 sequence (P25931 16-464 I47L): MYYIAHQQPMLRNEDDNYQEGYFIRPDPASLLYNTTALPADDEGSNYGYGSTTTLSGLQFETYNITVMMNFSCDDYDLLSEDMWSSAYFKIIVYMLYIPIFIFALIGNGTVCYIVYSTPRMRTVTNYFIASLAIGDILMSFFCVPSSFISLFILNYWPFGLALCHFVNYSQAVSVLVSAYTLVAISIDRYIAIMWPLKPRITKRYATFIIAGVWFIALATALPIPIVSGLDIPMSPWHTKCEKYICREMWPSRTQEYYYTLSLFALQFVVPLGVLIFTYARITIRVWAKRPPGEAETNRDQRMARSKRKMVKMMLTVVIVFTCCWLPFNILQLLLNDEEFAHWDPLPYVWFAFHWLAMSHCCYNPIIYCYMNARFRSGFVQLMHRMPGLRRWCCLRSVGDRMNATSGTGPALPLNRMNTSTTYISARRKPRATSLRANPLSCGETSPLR
Description: as §1, with “The membrane pellet was washed once with TEE, resuspended in 20 mM HEPES, pH 7.4, 100 mM NaCl, 10 mM MgCl2, 1 mM EDTA (assay buffer), aliquoted and frozen in liquid nitrogen. Membrane aliquots were stored at −70° C.” left out, “standard. […]” for “standard.”
as §2, with “y=Bottom+(Top−Bottom)/(1+10^LogEC50-X). […]” for “y=Bottom+(Top−Bottom)/(1+10^LogEC50-X).”

DmGPCR7 = assay: FLIPR analysis of intracellular calcium release; type: cell-based, Drosophila melanogaster; conditions: DmGPCR7 in CHO-10001A cells; peptides with C-terminal HSWGa; given in words
DmGPCR7, sequence (as listed by the source): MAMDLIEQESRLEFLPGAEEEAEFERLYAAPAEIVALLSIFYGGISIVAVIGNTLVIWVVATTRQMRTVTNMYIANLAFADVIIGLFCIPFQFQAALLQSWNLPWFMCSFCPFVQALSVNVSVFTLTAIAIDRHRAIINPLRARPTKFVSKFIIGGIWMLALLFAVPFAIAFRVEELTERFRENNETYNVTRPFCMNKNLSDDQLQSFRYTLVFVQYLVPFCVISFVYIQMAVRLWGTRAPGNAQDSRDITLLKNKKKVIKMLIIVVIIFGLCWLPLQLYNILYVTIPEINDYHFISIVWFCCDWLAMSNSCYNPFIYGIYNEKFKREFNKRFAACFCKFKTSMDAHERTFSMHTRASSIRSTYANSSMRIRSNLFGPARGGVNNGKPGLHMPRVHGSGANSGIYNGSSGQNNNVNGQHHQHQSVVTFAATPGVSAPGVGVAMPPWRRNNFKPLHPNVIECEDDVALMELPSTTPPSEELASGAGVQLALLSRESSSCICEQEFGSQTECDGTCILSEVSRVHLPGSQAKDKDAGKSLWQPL
Description: Changes in intracellular calcium levels are another recognized indicator of G protein-coupled receptor activity, and such assays can be employed to screen for modulators of DmGPCR activity. For example, CHO cells stably transfected with a DmGPCR expression vector are plated at a density of 4×10^4 cells/well in Packard black-walled, 96-well plates specially designed to discriminate fluorescence signals emanating from the various wells on the plate. The cells are incubated for 60 minutes at 37° C. in modified Dulbecco's PBS (D-PBS) containing 36 mg/L pyruvate and 1 g/L glucose and one of four calcium indicator dyes (Fluo-3™ AM, Fluo-4™ AM, Calcium Green™-1 AM, or Oregon Green™ 488 BAPTA-1 AM), each at a concentration of 4 μM. Plates are washed once with modified D-PBS and incubated for 10 minutes at 37° C. to remove residual dye from the cellular membrane. In addition, a series of washes with modified D-PBS is performed immediately prior to activation of the calcium response.
A calcium response is initiated by the addition of one or more candidate receptor agonist compounds, calcium ionophore A23187 (10 μM; positive control), or ATP (4 μM; positive control). Fluorescence is measured by Molecular Device's FLIPR with an argon laser (excitation at 488 nm). (See, e.g., Kuntzweiler et al., Drug Dev. Res., 1998, 44(1), 14-20). The F-stop for the detector camera was set at 2.5, and the length of exposure was 0.4 milliseconds. Basal fluorescence of cells was measured for 20 seconds prior to addition of candidate agonist, ATP, or A23187, and the basal fluorescence level was subtracted from the response signal. The calcium signal is measured for approximately 200 seconds, taking readings every two seconds. Calcium ionophore A23187 and ATP increase the calcium signal 200% above baseline levels. In general, activated GPCRs increase the calcium signal approximately 10-15% above baseline signal.
as §3

[1] = system: first Drosophila allatostatin receptor; conditions: via Gi/Go pathways; cited from earlier work
DmGPCR4 = assay: [35S]GTPγS binding assay, membranes of transfected CHO cells; type: biochemical, Drosophila melanogaster; conditions: given in words
DmGPCR4, sequence (as listed by the source): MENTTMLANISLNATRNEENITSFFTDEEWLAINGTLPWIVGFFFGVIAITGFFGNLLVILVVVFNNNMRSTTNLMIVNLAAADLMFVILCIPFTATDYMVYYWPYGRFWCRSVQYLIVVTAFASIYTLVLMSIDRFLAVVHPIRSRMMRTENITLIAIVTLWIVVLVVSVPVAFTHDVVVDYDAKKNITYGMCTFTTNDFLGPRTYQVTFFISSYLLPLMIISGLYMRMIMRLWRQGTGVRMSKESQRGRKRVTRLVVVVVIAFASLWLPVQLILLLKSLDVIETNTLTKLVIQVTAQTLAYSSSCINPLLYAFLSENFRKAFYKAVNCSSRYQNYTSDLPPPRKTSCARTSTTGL
Description: as §1, with “The membrane pellet was washed once with TEE, resuspended in 20 mM HEPES, pH 7.4, 100 mM NaCl, 10 mM MgCl2, 1 mM EDTA (assay buffer), aliquoted and frozen in liquid nitrogen. Membrane aliquots were stored at −70° C.” left out, “standard. […]” for “standard.”
as §2, with “y=Bottom+(Top−Bottom)/(1+10^LogEC50-X). […]” for “y=Bottom+(Top−Bottom)/(1+10^LogEC50-X).”

DmGPCR8 [2] = assay: direct calcium mobilization assay (FLIPR); type: cell-based, Drosophila melanogaster; conditions: DmGPCR8 without chimeric G-protein
Description: as §4, §5
Target sequence in this assay (as listed by the source): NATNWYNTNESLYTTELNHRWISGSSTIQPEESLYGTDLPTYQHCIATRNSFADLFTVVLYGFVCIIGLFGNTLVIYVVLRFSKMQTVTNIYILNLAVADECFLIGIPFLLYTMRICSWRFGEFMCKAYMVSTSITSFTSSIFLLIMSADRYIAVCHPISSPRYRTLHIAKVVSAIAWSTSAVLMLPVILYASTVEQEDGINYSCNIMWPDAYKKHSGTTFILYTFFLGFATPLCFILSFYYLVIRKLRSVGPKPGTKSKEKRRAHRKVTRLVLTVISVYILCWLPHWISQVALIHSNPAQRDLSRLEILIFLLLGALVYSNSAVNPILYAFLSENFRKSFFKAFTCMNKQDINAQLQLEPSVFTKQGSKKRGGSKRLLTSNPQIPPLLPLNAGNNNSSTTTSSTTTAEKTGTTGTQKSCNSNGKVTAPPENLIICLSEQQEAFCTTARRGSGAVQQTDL

DmGPCR8 [3] = assay: [35S]GTPγS binding assay, dose response; type: biochemical, Drosophila melanogaster; conditions: DmGPCR8 in CHO-10001A cells; given in words
Description: as §1, with “The membrane pellet was washed once with TEE, resuspended in 20 mM HEPES, pH 7.4, 100 mM NaCl, 10 mM MgCl2, 1 mM EDTA (assay buffer), aliquoted and frozen in liquid nitrogen. Membrane aliquots were stored at −70° C.” left out, “standard. […]” for “standard.”
as §2, with “y=Bottom+(Top−Bottom)/(1+10^LogEC50-X). […]” for “y=Bottom+(Top−Bottom)/(1+10^LogEC50-X).”
Target sequence in this assay (as listed by the source): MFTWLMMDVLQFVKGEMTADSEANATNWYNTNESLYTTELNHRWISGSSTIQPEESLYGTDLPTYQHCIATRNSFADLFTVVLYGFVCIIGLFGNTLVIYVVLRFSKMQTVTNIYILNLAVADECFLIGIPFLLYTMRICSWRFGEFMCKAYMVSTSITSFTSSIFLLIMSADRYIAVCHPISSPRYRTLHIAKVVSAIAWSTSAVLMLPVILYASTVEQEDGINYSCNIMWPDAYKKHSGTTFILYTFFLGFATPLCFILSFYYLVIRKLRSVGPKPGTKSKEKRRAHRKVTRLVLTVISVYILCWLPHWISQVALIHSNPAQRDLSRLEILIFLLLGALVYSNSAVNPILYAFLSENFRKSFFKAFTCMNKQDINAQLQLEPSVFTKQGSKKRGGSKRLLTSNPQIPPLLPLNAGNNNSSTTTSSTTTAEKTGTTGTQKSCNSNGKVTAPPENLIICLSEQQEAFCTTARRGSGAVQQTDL

APVNSFVGMR [DTK-4, APVNSFVGMR-NH2]
EC50, stimulation of GTPγS binding (DmGPCR5): low micromolar range

FDDYGHLRF-NH2 [unsulfated counterpart of FDDY(SO3H)GHLRF-NH2]
calcium signal (DmGPCR9): very weak calcium signal

FLFQPQRF-NH2 [NPFF]
Ca+2 responses (FLIPR) (Dmgpcr6aL): recognized
Ca+2 responses (FLIPR) (Dmgpcr6bL): recognized
increase in GTPγS binding above the basal (DmGPCR6a): 4 fold

NPFHSWG [Culekinin, NPFHSWGa]
EC50, intracellular calcium release (FLIPR) (DmGPCR7): picomoloar to subnanomolar range

NSVVLGKKQRFHSWGa (NSVVLGKKQRFHSWG-NH2) [DLK-1]
EC50, intracellular calcium release (FLIPR) (DmGPCR7): picomoloar to subnanomolar range

QRFHSWG [DLK-2a, QRFHSWGa]
EC50, intracellular calcium release (FLIPR) (DmGPCR7): picomoloar to subnanomolar range

SRPYSFGL [drostatin-3, Ser-Arg-Pro-Tyr-Ser-Phe-Gly-Leu-NH2]
functional activation of the receptor [1]: functionally activated
EC50, GTPγS responses (DmGPCR4): low nanomolar range

[pGlu]VRFQCYFNPISCF-OH (cysteine pairing not given here) [AST-C]
activity in direct calcium mobilization assay (FLIPR) (DmGPCR8 [2]): did not show any activity
EC50, GTPγS-binding responses (DmGPCR8 [3]): low nanomolar range

pGlu-RFHSWGa [DLK-2]
EC50, intracellular calcium release (FLIPR) (DmGPCR7): picomoloar to subnanomolar range

pGlu-SSFHSWGa [LK-VI]
EC50, intracellular calcium release (FLIPR) (DmGPCR7): picomoloar to subnanomolar range
